Laboratory results as given in patent US11529319B2, “Methods and compositions for treating neurological conditions” (priority 2017, dated 2022).
Entries after “also recorded” stand apart in the source; their conditions may differ.

How the values were obtained:
[1] = tested on: Mef2c-het mice; assay: Open field test (locomotor activity); assay type: in vivo, mouse; details: chronic treatment, 30-minute test
Excerpt: (§1) Mef2c heterozygous knockout (Mef2c-het) mice were created by crossing mice carrying the conventional exon 2-deleted allele of Mef2c (Mef2c^Δ2) with their WT littermates. All procedures for maintaining and using these mice were approved by the Institutional Animal Care and Use Committee (IACUC) at the Sanford Burnham Prebys Medical Discovery Institute. In this study, only male mice were used for the behavioral assays to insure uniformity (either with or without drug treatment). Chronic treatment with memantine, NitroSynapsin (both at 4.6 μmol/kg body weight) or vehicle (PBS) was administered via i.p. injection, twice a day for at least 3 months, starting at ˜2.5 weeks of age. This age was chosen because mice are still juveniles and thus treatment could begin in human at an equivalent stage.
Locomotor activity was measured in polycarbonate cages (42×22×20 cm) placed into frames (25.5×47 cm) mounted with two levels of photocell beams at 2 and 7 cm above the bottom of the cage (San Diego Instruments, San Diego, Calif.). These two sets of beams allowed recording of both horizontal (locomotion) and vertical (rearing) behavior. A thin layer of bedding material was applied to the bottom of the cage. Mice were tested for 30 or 120 min depending on the exact test.

[2] = tested on: Mef2c-het mice; assay: Hole-board exploration test; assay type: in vivo, mouse; details: chronic treatment
Excerpt: as §1
The apparatus consisted of a Plexiglas cage (32×32×30 cm) with 16 holes in a format of 4×4 (each 3 cm in diameter) equally spaced on an elevated floor. The explorative activity including the number of head-dips and the time spent head-dipping were measured for 5 min.

[3] = tested on: Mef2c-het mice; assay: Three-chamber social interaction test; assay type: in vivo, mouse
Excerpt: as §1
This test was originally developed by the Crawley group for an animal model of autism. Autistic individuals show aberrant reciprocal social interaction, including low levels of social approach and unusual modes of interaction. A social interaction apparatus consisting of a rectangular, three chambered Plexiglas box, with each chamber measuring 20 cm (length)×40.5 cm (width)×22 cm (height) was used. Walls dividing the chamber were clear with small semicircular openings (3.5 cm radius), allowing access into each chamber. The middle chamber was empty and the two outer chambers contained small, round wire cages (Galaxy Cup, Spectrum Diversified Designs, Inc., Streetsboro, Ohio). The mice were habituated to the entire apparatus for 5 min. To assess social interaction, mice were returned to the middle chamber, this time with a stranger mouse (C57BL/6J of the same sex tethered to the wire cage). Time spent in the chamber with the stranger mouse and time spent in the empty wire cage-containing chamber were each recorded for 5 min, as was the number of entries into each chamber. Experimental mice were tested once, and the stranger C57BL/6J mice were used for up to 6 tests.

[4] = tested on: Mef2c-het mice; details: mouse, in vivo
Excerpt: as §1, with “stage. […]” for “stage.”
For extracellular field recordings, concentric, bipolar tungsten electrodes were used to activate Schaffer collateral/commissural (SC) fibers in the hippocampal CA1 region. […] For baseline recordings, slices were stimulated at 0.033 Hz for 20 min at stimulation intensities of 30-40% of those used to elicit the largest measured fEPSP amplitude. […] Data were sampled at 5 kHz and analyzed using the Clampfit 10 program (Molecular Devices).
Synaptic activity was recorded from dentate gyrus (DG) granule neurons using the whole-cell voltage-clamp technique. […]

[5] = tested on: Tsc2+/- mice; assay: Fear conditioning test; assay type: in vivo, mouse; details: two-and-a-half-day treatment, last dose 3 hours before training
Excerpt: To determine the effects of eNMDAR antagonists on the brain histology of Tsc2^+/− mice, quantitative confocal immunohistochemistry was used to analyze coronal brain slices from 3-month-old wild-type (WT) and Tsc2^+/− mice that had been treated for two and a half days with vehicle, memantine or NitroSynapsin. Tsc2+/− mice on the C57Bl/6J background received via the intraperitoneal route either vehicle or a loading dose of 92 μmol/kg of memantine or NitroSynapsin, followed by 4.6 μmol/kg of drug twice daily for two-and-a-half-days, with the last dose 3 hours prior to the behavioral training session (for a total of five drug injections). This dosing regimen yields an effective concentration of drug at NMDARs in the brain of 1-10 μM.
Fear conditioning tests were performed on three-month-old Tsc2^+/+ and Tsc2^+/− mice to explore the effects of eNMDAR antagonists on anxiety, and learning and memory deficits in Tsc2^+/− mice. Vehicle, memantine or NitroSynapsin were administered for two and a half days, with the last dose of drug occurring 3-hours prior to the first training session. […] Freezing time of three-month-old WT and Tsc2^+/− transgenic mice treated with vehicle, memantine or NitroSynapsin in fear-conditioning trials. […] Values are mean+s.e.m. (n=7-12 mice per group). […]

[6] = tested on: MeCP2 knockout (KO) mouse model of Rett syndrome; assay: Rotarod test; assay type: in vivo; details: MeCP2 KO mice
Procedure: Mice were placed on the stationary cylinder and the cylinder then slowly accelerated to 10 revolutions/min. The total time at 10 rpm before a fall from the cylinder was recorded.

For `CCC12CC3(N)CC(CC)(C1)CC(O[N+](=O)[O-])(C3)C2` [NitroSynapsin], the “open field center time / center activity” value [1] was “rescued by chronic treatment with NitroSynapsin; also recorded: rescued by treatment with N”, the “head-dips per hole (repetitive behavior)” value [2] was “corrected the abnormal repetitive behavior” and the “social ability: time in chambers, number and duration of visits” value ([3]; Mef2c-het mice, chronic treatment) was “improved this abnormal social behavior; also recorded: rescued aberrant social ability”. The “number of social visits (S1 minus E), NitroSynapsin vs equimolar memantine” value ([3]; Mef2c-het mice, head-to-head comparison) was “demonstrated the superiority of NitroSynapsin; also recorded: significantly greater than that of memantine (M)-treated mice”, the “social behavior of WT mice” value ([3]; WT mice, 3-month treatment) was “did not significantly alter the social behavior of WT mice” and the “effect on EPSCs in WT mice” value [4] was “no effects”. For the same molecule, the “effect on LTP in WT mice” value [4] was “no effects”, the “context discrimination (freezing time, training vs novel context)” value [5] was “all improved; also recorded: normalizing context discrimination; also recorded: improved the ability to discriminate context in Tsc2^+/− mice to normal WT levels; also recorded: normalized context discrimination” and the “rotarod performance (time at 10 rpm before a fall)” value [6] was “improved motor behavior; also recorded: significantly improved motor performance”.
